Converted amounts (≈) assume the structure as drawn. Where two headings read alike, the source gives them in different places. Where a SMILES comes first, the peptide text is derived from it. Bridges are numbered along the chain shown (N, C = ends).

One assay relates to MRSA strain 1. The assay is classed as cell-based, Staphylococcus aureus. On the procedure:
(§1) The antimicrobial activity of peptide γ2 was evaluated versus Pseudomonas aeruginosa ATCC 27853, Escherichia coli ATCC 13762 and Staphylococcus aureus ATCC 6538, and versus multidrug-resistant (MDR) clinical isolates of Methicillin-Resistant Staphylococcus aureus (MRSA), extended-spectrum β-lactamase (ESBL)-producing E. coli, P. aeruginosa and Acinetobacter baumannii complex. The isolates were identified by mass spectrometry using the MALDI (matrix-assisted laser desorption/ionisation) mass spectrometer and the biochemical phenotyping method in a VITEKR 2 bioMérieux system (bioMérieux Italia S.p.a., Bagno a Ripoli, Florence, Italy), according to the manufacturer's instructions. The antibiotic susceptibility profile was evaluated with the VITEKR 2 bioMérieux System. The microorganisms were cultured in broth and agar at 37° C. The media used were BD Brain Heart Infusion broth (BHI) (BD, Franklin Lakes, NJ, USA) and BHI agar (OXOID, Basingstoke, Hampshire, UK), BD Trypticase Soy agar with 5% sheep's blood and MacConkey agar (OXOID, Basingstoke, Hampshire, UK). The isolates were stored frozen at −80° C. in BHI broth supplemented with 10% (v/v) glycerol (Carlo Erba Reagents, Milan, Italy) until use, and the work cultures were activated in the respective broths at 37° C. for 15-18 h.
(§2) Assays of the antibacterial activity of peptide γ2, in both reduced and oxidised form, were conducted against P. aeruginosa ATCC 27853, E. coli ATCC 13762, S. aureus ATCC 6538 and MDR clinical isolates. The strains were cultured under aerobic conditions in BHI broth at 37° C. and incubated with peptide γ2 for 2 hours at 37° C. Various concentrations of peptide were used, ranging from 1 μM to 128 μM. Each test was conducted in triplicate with three independent cultures. The minimum inhibitory concentration (MIC) and the minimum bactericidal concentration (MBC) of the peptide were determined with a modified version of the Clinical and Laboratory Standards Institute broth microdilution assay, using a final inoculum concentration of 10^5 CFU/ml, as previously described (Scudiero O et al., Antimicrob Agents Chemother 2010; 54:2312-22; Scudiero O et al. Antimicrob Ag Chemother 2013; 57:1701-8).
(§3) The MIC is indicated by the concentration interval, which comprise the upper growth limit and the first concentration which could not support visible bacterial growth after incubation. The MBC was defined as the lowest concentration at which no viable colonies were observed. The peptide concentrations were 128.0, 64.0, 32.0, 16.0, 8.0, 4.0, 2.0 and 1 μM. For the time-kill studies against the ATCC and MDR strains, the bacteria were cultured in BHI broth until the late log growth phase at 37° C. The bacterial suspensions, containing about 10^6 CFU/ml (adjusted by the spectrophotometer to OD600 nm), were diluted 1:100 in PBS1× and then incubated at 37° C. with or without the peptide, selected at concentrations corresponding to 1, 2 and 4×MIC (as determined above). At baseline and 1, 2, 3 and 5 hours after incubation, a portion of each sample was harvested, diluted in series in PBS1× and seeded on BHI agar. The plates were incubated for […] at 37° C., and the viable bacteria count was conducted by the CFU method. All the data were expressed as mean±SD of three independent experiments.

The test system of the next assay is MRSA strain 2. The assay is classed as cell-based, Staphylococcus aureus. The procedure:
as §1, §2, §3

For another assay, the system named is MRSA strain 3. The assay is classed as cell-based, Staphylococcus aureus. On the procedure: as §1, §2, §3
Another assay concerns S. aureus ATCC 6538. The format is cell-based, Staphylococcus aureus. The procedure:
as §1, §2, §3

In the next assay the test system is E. coli ATCC 13762. The assay is classed as cell-based, Escherichia coli. The procedure:
as §1, §2, §3

Another assay concerns E. coli ESBL strain 1. The format is cell-based, Escherichia coli. On the procedure:
as §1, §2, §3

The subject of the next assay is E. coli ESBL strain 2. The format is cell-based, Escherichia coli. The procedure: as §1, §2, §3
The subject of a further assay is P. aeruginosa ATCC 27853. The format is cell-based, Pseudomonas aeruginosa. On the procedure:
as §1, §2, §3

Assay [1] deals with P. aeruginosa MDR strain 1. The format is cell-based, Pseudomonas aeruginosa. On the procedure:
as §1, §2, §3

Assay [2] deals with P. aeruginosa MDR strain 2. The format is cell-based, Pseudomonas aeruginosa. On the procedure: as §1, §2, §3
Assay [3] concerns A. baumannii MDR strain 1. The assay is classed as cell-based, Acinetobacter baumannii complex. On the procedure: as §1, §2, §3
Assay [4] has as its system A. baumannii MDR strain 2. The format is cell-based, Acinetobacter baumannii complex. On the procedure:
as §1, §2, §3

The next assay relates to A549 cells. Nature of the assay: Cell migration assay in Boyden chambers. The settings on record: 10 nM, 4 h. The assay is classed as cell-based. The procedure: (§4) Cell migration assays were conducted as previously described (Bifulco K et al., Mol Cancer There 2013; 2:1981-93), using Boyden chambers and polyvinylpyrrolidone-free polycarbonate filters with 8 μm pores inserted between a lower and upper compartment. Briefly, the cell suspension (1×10^5 viable cells/mL of serum-free medium) was seeded in each upper chamber. The lower chambers were filled with DMEM only, DMEM containing 10 nM N-formyl-methionyl-leucylphenylalanine peptide (fMLF), as positive control, or increasing peptide γ2 concentration. Incubation was conducted for 4 h at 37° C. in air humidified with 5% CO2. At the end of the assay, the cells on the lower surface of the filter were fixed with ethanol and stained with haematoxylin, and 10 random fields/filter were counted with a 200× magnification. The extent of cell migration was expressed as a percentage of baseline cell migration evaluated in the absence of chemo-attractants, taken as 100% (CTRL).

The next assay concerns HT-1080 cells. Nature of the assay: Cell migration assay in Boyden chambers. The assay is classed as cell-based. As to conditions: 10 nM, 4 h. On the procedure: as §4
The subject of another assay is HUVEC endothelial cells. Nature of the assay: Cell migration assay in Boyden chambers. The format is cell-based. As to conditions: endothelial cells (HUVEC); 10 nM; 4 h. On the procedure: as §4

Turning to `CC[C@H](C)[C@@H]1NC(=O)[C@H](CCC(N)=O)NC(=O)[C@H](CCCNC(=N)N)NC(=O)[C@H](CCCNC(=N)N)NC(=O)[C@H](CCCCN)NC(=O)[C@@H]2CCCN2C(=O)[C@H](CC(C)C)NC(=O)[C@@H](NC(C)=O)CSSC[C@@H](C(=O)N[C@@H](CCCCN)C(=O)N[C@@H](CCCCN)C(N)=O)NC(=O)[C@H](CO)NC(=O)[C@H](CCCCN)NC(=O)[C@H](CCCNC(=N)N)NC(=O)CNC(=O)[C@H](CCCNC(=N)N)NC(=O)[C@H]([C@@H](C)O)NC(=O)[C@H](CO)NC(=O)[C@H](CO)NC(=O)[C@H](CCCCN)NC(=O)CNC1=O` [Oxidised peptide γ2] (Ac-CLPKRRQIGKSSTRGRKSCKK-NH2; disulfide 1-19 (inferred)), the MBC (commonly the smallest concentration meeting the test's criterion for killing) with MRSA strain 1 is 2 µM (≈ 4.91 µg/mL); in the assay on MRSA strain 2 it was 16 µM (≈ 39.3 µg/mL); against MRSA strain 3, 32 µM (≈ 78.6 µg/mL); with S. aureus ATCC 6538 it was 8 µM (≈ 19.7 µg/mL); against E. coli ATCC 13762, 1 µM (≈ 2.46 µg/mL); in the assay with E. coli ESBL strain 1, 2 µM (≈ 4.91 µg/mL). For the same molecule, the MBC in the assay on E. coli ESBL strain 2 came to 32 µM (≈ 78.6 µg/mL); with P. aeruginosa ATCC 27853, 4 µM (≈ 9.83 µg/mL); in [1], 32 µM (≈ 78.6 µg/mL); in [2], 32 µM (≈ 78.6 µg/mL); in assay [3] it was 128 µM (≈ 314 µg/mL); in [4] (MDR strain 2), 4 µM (≈ 9.83 µg/mL). In addition, the MIC (usually the least concentration at which growth counts as inhibited) in the assay on MRSA strain 1 was 1 µM (≈ 2.46 µg/mL); against MRSA strain 2, 2 µM (≈ 4.91 µg/mL); in the assay on MRSA strain 3 it was 2 µM (≈ 4.91 µg/mL); with E. coli ATCC 13762, 1 µM (≈ 2.46 µg/mL); in the assay on E. coli ESBL strain 1 it was 2 µM (≈ 4.91 µg/mL); with E. coli ESBL strain 2 it was 1 µM (≈ 2.46 µg/mL). In addition, the MIC was 1 µM (≈ 2.46 µg/mL) in assay [2], 4 µM (≈ 9.83 µg/mL) in assay [4] (MDR strain 2) and 4 µM (≈ 9.83 µg/mL) in [4] (multidrug-resistant clinical strain 2 of A. baumannii).
Turning to “N-formyl-methionyl-leucylphenylalanine peptide [fMLF, reference compound]”, the “cell migration, % of the baseline cell migration” value stood at 153% in the assay on A549 cells, 167% in the assay on HT-1080 cells and 166% in the assay with HUVEC endothelial cells.

The values are drawn from patent US20240417435A1, “DEFENSIN-DERIVED PEPTIDE WITH ANTIBACTERIAL ACTIVITY ALSO AGAINST MULTI-ANTIBIOTIC-RESISTANT BACTERIA” (priority 2021, published 2024).
